{
  "source": "patent US7326730B2",
  "about": "“Aminoadamantane derivatives as therapeutic agents” (Adamas Pharmaceuticals, Inc., priority 2000, dated 2008)",
  "key": {"[1]": {"test_system": "precontracted aortic vessel", "assay": "Relaxation of norepinephrine-precontracted, endothelium-denuded thoracic aorta rings", "design": "species or system rabbits", "conditions": "for effect on precontracted blood vessel: compared to solvent (EtOH) alone", "description": "New Zealand white female rabbits weighing 3-4 kilograms were anesthetized with sodium pentobarbital, 13 milligram per kilogram. Descending thoracic aorta were isolated, the vessels were cleaned of adherent tissue and the endothelium was removed by a gentle rubbing with a cotton-tipped applicator inserted into the lumen. The vessels were cut into 5 millimeter rings and mounted on stirrups connected to transducers by which changes in isometric tension were recorded (model TO3C, Grass Instruments, Quincy, Mass.). Vessel rings were suspended in 20 mL of oxygenated Krebs buffer at 37° C. and sustained contractions were induced with 1 μM norepinephrine. The vessels were then relaxed in a dose-dependent fashion (10^−9 through 10^−5 M compound 8). In some experiments vessels were pretreated with methylene blue or hemoglobin to block relaxations.\nRelaxations were attenuated by methylene blue (c) and hemoglobin (d) indicating an NO-related effect. (b) is a control with solvent."}, "[2]": {"test_system": "C57B1/6 mice", "assay": "Murine cerebral ischemia model (intraluminal suture, 2 hr MCA occlusion, TTC staining)", "assay_type": "in vivo", "conditions": "loading dose 100 mg/kg i.p., maintenance 40 mg/kg i.p. every 12 hr, first dose 2 hr after MCA occlusion; TTC staining at 48 hr; P<0.03 from control, P<0.05 from memantine; hydrochloride", "description": "The intraluminal suture technique was used to produce a 2 hr occlusion of the middle cerebral artery (MCA), following the same protocol for focal cerebral ischemia/reperfusion as published previously (Chen, et al., Neuroscience (1998) 86: 1121). However, here C57B1/6 mice were used instead of rats. […] To produce a neuroprotective concentration of compound 7, the loading dose was 100 mg/kg i.p. and the maintenance dose was 40 mg/kg i.p. every 12 hr. In each case, drug or vehicle control was initially administered 2 hr after MCA occlusion. […] The animals were sacrificed and analyzed with TTC staining 48 hr after MCA occlusion (Chen, et al., Neuroscience (1998) 86: 1121)."}, "[3]": {"test_system": "cerebrocortical neurons", "assay": "In vitro model of mild NMDA-induced damage leading to apoptosis of cerebrocortical neurons", "assay_type": "cell-based", "description": "Cerebrocortical cultures were exposed to 300 μM NMDA for 20 min with or without various concentrations of compound 7. The next day cultures were analyzed by neuronal apoptosis as described in Example 19.\nUnder these conditions (300 μM NMDA exposure for 20 min, followed by washout), neuronal apoptosis was monitored 24 hours later by propidium iodide uptake and morphology of fixed, permeabilized neurons, among other techniques (Bonfoco et al., Proc Natl Acad Sci USA (1995) 92: 7162). NMDA induced about 20% apoptosis of neurons, and that 25-100 μM compound 7 afforded protection from this damage (P<0.001, FIG. 5)."}, "[4]": {"conditions": "loading dose 20 mg/kg i.p., maintenance dose 1 mg/kg/12 hours; previously shown (Chen et al. 1998); cited from earlier work"}, "[5]": {"conditions": "rabbit aortic rings precontracted with 1 μM norepinephrine, 10^−9 through 10^−5 M tested"}},
  "note": "Entries after “also recorded” stand apart in the source; their conditions may differ.",
  "data": [
    {"smiles": "CC12CC3(C)CC(N)(C1)CC(O[N+](=O)[O-])(C2)C3.Cl", "note": "[compound 7, 1-amino-3,5-dimethyl-7-nitrateadamantane hydrochloride]", "values": [
      {"measurement": "effect on precontracted blood vessel at 10 microM", "setting": "[1]; FIG. 8, 10 microM concentration", "result": "modest relaxation"},
      {"measurement": "cerebral damage after stroke (neuroprotection)", "setting": "[2]", "result": "more neuroprotective than memantine; also recorded: effective in decreasing cerebral damage after stroke"},
      {"measurement": "concentration affording protection from NMDA-induced neuronal apoptosis", "setting": "[3]; 300 μM NMDA for 20 min, washout, apoptosis monitored 24 hours later by propidium iodide uptake and morphology, NMDA induced about 20% apoptosis, P<0.001", "result": "25 to 100", "unit": "µM"},
      {"measurement": "inhibition of NMDA induced apoptosis in cerebrocortical neurons", "setting": "[3]; 300 μM NMDA for 20 min with various concentrations of compound, dose-dependent, P<0.001, n=3 cultures", "result": "largely prevented"}
    ]},
    {"smiles": "CC12CC3CC(C)(C1)CC(N)(C3)C2", "note": "[memantine]", "values": [
      {"measurement": "parenchymal levels in the brain", "setting": "[4]", "result": "1 to 10", "unit": "µM"}
    ]},
    {"smiles": "CC(=O)NC12CC3(C)CC(C)(C1)CC(O[N+](=O)[O-])(C3)C2", "note": "[compound 8, 1-acetamido-3,5-dimethyl-7-nitrateadamantane]", "values": [
      {"measurement": "concentration at which complete relaxation was achieved", "setting": "[1]; [5]", "result": "10^−6 M"},
      {"measurement": "concentration at which relaxations were seen", "setting": "[1]; [5]", "result": "10^−8 M"},
      {"measurement": "relaxations after pretreatment with hemoglobin", "setting": "[1]; vessels pretreated with hemoglobin", "result": "attenuated"},
      {"measurement": "relaxations after pretreatment with methylene blue", "setting": "[1]; vessels pretreated with methylene blue", "result": "attenuated"}
    ]},
    {"smiles": "CC12CC3(C)CC(O)(C1)CC(N(Cc1ccccc1)Cc1ccccc1)(C2)C3", "note": "[compound 10, 1,1-dibenzylamino-3,5-dimethyl-7-hydroxy-adamantane]", "values": [
      {"measurement": "effect on precontracted blood vessel", "setting": "[1]; FIG. 8", "result": "either no effect or slight contractions of blood vessels; also recorded: either no effect or slight blood vessel contractions"}
    ]},
    {"smiles": "CC12CC3(C)CC(N)(C1)CC(O)(C2)C3.Cl", "note": "[compound 9, 1-amino-3,5-dimethyl-7-hydroxyadamantane hydrochloride]", "values": [
      {"measurement": "effect on precontracted blood vessel", "setting": "[1]; FIG. 8, hydrochloride", "result": "either no effect or slight contractions of blood vessels; also recorded: either no effect or slight blood vessel contractions"}
    ]}
  ]
}
